Earlier results as cited in US20060166974A1, “Azabenzoxazoles for the treatment of CNS disorders” (Pfizer Inc., priority 2004, published 2006).

half-life (in vivo): 6 to 7 h
protein binding (in vivo): extensive
Oral bioavailability (taken with food): approximately 60%
Compound: O=C1Cc2cc(CCN3CCN(c4nsc5ccccc45)CC3)c(Cl)cc2N1 [Ziprasidone, 5-[2-[4-(1,2-benzisothiazol-3-yl)piperazin-1-yl]ethyl]-6-chloroindolin-2-one]
